# Active and inactive are the calls of the source. No cut-off for these calls is given here.
# Key:
# [1] = test system: Chromobacterium violaceum; assay: Antibacterial activity against Chromobacterium violaceum DSM 30191 after 24 to 48 hrs by serial dilution method; assay type: functional
# [2] = test system: Pseudomonas aeruginosa; assay: Antibacterial activity against Pseudomonas aeruginosa PA14 after 24 to 48 hrs by serial dilution method; assay type: functional
# [3] = test system: Schizosaccharomyces pombe; assay: Antifungal activity against Schizosaccharomyces pombe DSM 70572 after 24 to 48 hrs by serial dilution method; assay type: functional
# [4] = test system: Micrococcus luteus; assay: Antibacterial activity against Micrococcus luteus DSM 1790 after 24 to 48 hrs by serial dilution method; assay type: functional
# [5] = test system: Candida albicans; assay: Antifungal activity against Candida albicans DSM 1665 after 24 to 48 hrs by serial dilution method; assay type: functional
# [6] = test system: Rhodotorula glutinis; assay: Antifungal activity against Rhodotorula glutinis DSM 10134 after 24 to 48 hrs by serial dilution method; assay type: functional
# [7] = test system: L929; assay: Cytotoxicity against mouse L929 cells after 5 days by MTT assay; assay type: cell-based; details: L929, 120 h
# [8] = test system: Escherichia coli; details: DSM 498
# Description: (§1) Antibacterial activity against Escherichia coli DSM 498 after 24 to 48 hrs by serial dilution method
# [9] = test system: Wickerhamomyces anomalus; assay: Antifungal activity against Pichia anomala DSM 6766 after 24 to 48 hrs by serial dilution method; assay type: functional
# [10] = test system: Staphylococcus aureus; assay: Antibacterial activity against Staphylococcus aureus DSM 346 after 24 to 48 hrs by serial dilution method; assay type: functional
# [11] = test system: HUVEC; assay: Cytotoxicity against HUVEC after 5 days by MTT assay; assay type: cell-based; details: Homo sapiens, 120 h
# [12] = test system: Bacillus subtilis; assay: Antibacterial activity against Bacillus subtilis DSM 10 after 24 to 48 hrs by serial dilution method; assay type: functional
# [13] = test system: KB 3-1; assay: Cytotoxicity against human KB 3.1 cells after 5 days by MTT assay; assay type: functional, cell-based; details: KB 3-1, 120 h
# [14] = test system: Mucor plumbeus; assay: Antifungal activity against Mucor plumbeus MUCL 49355 after 24 to 48 hrs by serial dilution method; assay type: functional
# [15] = test system: Escherichia coli; assay: microbe, parasite or virus in culture; details: DSM 498
# Description: as §1
Compound,MIC [1],MIC [2],MIC [3] [µg/mL],MIC [4] [µg/mL],MIC [5],MIC [6] [µg/mL],IC50 [7] [µM],MIC [8],MIC [9],MIC [10] [µg/mL],IC50 [11] [µM],MIC [12] [µg/mL],IC50 [13] [µM],MIC [14] [µg/mL],MIC [15] [µg/mL]
CO[C@H]1O[C@H]2c3c(cnc(C(=O)CO)c31)C[C@H](O)[C@@H]1C3=C(C(C)C)CC[C@]3(C)CC[C@@]21C,inactive,inactive,16.7,16.7,inactive,16.7,16.3,inactive,inactive,16.7,5.9,9.4,14.7,150,–
CO[C@@H]1O[C@H]2c3c(cnc(C(=O)CO)c31)C[C@H](O)[C@@H]1C3=C(C(C)C)CC[C@]3(C)CC[C@@]21C,inactive,inactive,8.3,8.3,inactive,8.3,15.4,inactive,inactive,8.3,6.3,9.4,12.7,150,–
C/C(=C\c1csc(C)n1)[C@@H]1C[C@@H]2O[C@@H]2CCC[C@H](C)[C@H](O)[C@@H](C)C(=O)C(C)(C)[C@@H](O)CC(=O)O1 [EPOTHILONE A],–,–,–,–,–,–,0.0038,–,–,–,–,–,–,–,–
C/C(=C\c1csc(C)n1)[C@@H]1C[C@@H]2O[C@]2(C)CCC[C@H](C)[C@H](O)[C@@H](C)C(=O)C(C)(C)[C@@H](O)CC(=O)O1 [PATUPILONE],–,–,–,–,–,–,–,–,–,–,0.00055,–,0.00022,–,–
O=C(O)c1cn(C2CC2)c2cc(N3CCNCC3)c(F)cc2c1=O [CIPROFLOXACIN],–,–,–,–,–,–,–,–,–,–,–,≤ 2.3,–,–,≤ 2.3
NYSTATIN,–,–,66.7,–,16.7 µg/mL,66.7,–,–,16.7 µg/mL,–,–,–,–,9.4,–
CN(C)[C@@H]1C(O)=C(C(N)=O)C(=O)[C@@]2(O)C(O)=C3C(=O)c4c(O)cccc4[C@@](C)(O)[C@H]3[C@H](O)[C@@H]12 [OXYTETRACYCLINE],2.1 µg/mL,–,–,8.3,–,–,–,–,–,1,–,–,–,–,–

# Source: ChEMBL document CHEMBL4000154, “Pyristriatins A and B: Pyridino-Cyathane Antibiotics from the Basidiomycete Cyathus cf. striatus” (J Nat Prod, 2016)
